Experimental data from patent publication US8722072B2, “Acaricidal and/or insecticidal active ingredient combinations” (priority 2010, dated 2014).

What was measured:
Type in all cases: in vivo
Tetranychus urticae [1] = test: Example 3: field test on tomatoes against Tetranychus urticae; conditions: adults on leaves, 3 days after treatment
Protocol: In plots measuring approximately 6 m^2, tomatoes of the cultivar “Leader” are treated in three replications against Tetranychus urticae. Application takes place using a back-mounted spray (4.5 bar). […] The water application rate is 1000 l/ha.
Evaluation is made 3 days after treatment, by scoring the destruction of the adults on the leaves.

[2] = tested on: two-spotted spider mite (Tetranychus urticae); test: Example 8: Tetranychus urticae - test on cotton; conditions: cotton plants, spray
Protocol: Tetranychus urticae—Test on Cotton
• Solvent: 7 parts by weight of dimethylformamide • Emulsifier: 2 parts by weight of alkylaryl polyglycol ether
(§1) An appropriate preparation of active ingredient is prepared by mixing 1 part by weight of active ingredient with the stated amounts of solvent and emulsifier and diluting the concentrate with emulsifier-containing water to the desired concentration.
Cotton plants (Gossypium hirsutum) infected with the two-spotted spider mite (Tetranychus urticae) are treated by being sprayed with the preparation of active ingredient in the desired concentration.
After the desired time, a determination is made of the destruction in %. 100% here means that all of the mites have been killed; 0% means that no mites have been killed. The destruction figures ascertained are calculated by the Colby formula.

[3] = tested on: Frankliniella occidentalis; test: Example 9: field test on bell peppers against Frankliniella occidentalis; conditions: for Destruction (% Abbott) 7 days: adults in the flowers, 7 days after the second treatment; for Destruction (% Abbott) 14 days: mixed population in the flowers, 14 days after the second treatment
Protocol: In plots measuring approximately 10 m^2, bell peppers of the cultivar “Italiano verde” are treated in three replications against Frankliniella occidentalis. Application is made using a back-mounted spray (10 bar). […] The water application rate is 750 l/ha. Two applications are carried out, at an interval of 7 days.
Evaluation is made 7 days after the second treatment, by scoring the destruction of the adults in the flowers.
Evaluation is made 14 days after the second treatment, by scoring the destruction of the mixed population in the flowers.

Hemitarsonemus latus = test: Example 7: field test on bell peppers against Hemitarsonemus latus; conditions: adults on leaves, 2 days after treatment
Protocol: In plots measuring approximately 6 m^2, bell peppers of the cultivar “California Wonder” (growth stage 75) are treated in three replications against Hemitarsonemus latus. Application takes place using a sprayer at 2.5 bar pressure. […] The water application rate is 300 l/ha.
Evaluation is made 2 days after treatment, by scoring the destruction of the adults on the leaves.

Tetranychus urticae [4] = test: Example 5: field test on roses (Freedom) against Tetranychus urticae; conditions: population on leaves, 1 day after treatment
Protocol: In plots measuring approximately 14 m^2, roses (growth stage 46) of the cultivar “Freedom” in double rows are treated in three replications against Tetranychus urticae. Application takes place using a back-mounted spray. In this example, the mixture of the active ingredients Oberon, Example (I), and abamectin, Example (VI), is tested against the commercial standards abamectin (018 EC) and Oberon (240 SC) at the stated application rates and in the stated mixing ratios. The water application rate is 1000 l/ha.
Evaluation is made 1 day after treatment, by scoring the destruction of the population on the leaves.

Tetranychus urticae [5] = test: Example 2: field test on roses (Blizard) against Tetranychus urticae; conditions: adults on leaves, 3 days after treatment
Protocol: In plots measuring approximately 6 m^2, roses of the cultivar “Blizard” with an age of approximately 3 years are treated in three replications against Tetranychus urticae. Application takes place using a back-mounted spray (3.5 bar). […] The water application rate is 1320 l/ha. Evaluation is made 3 days after treatment, by counting the adults on the leaves/square inch. Subsequently, the activity is calculated as a percentage by the method of Henderson and Tilton.

Tetranychus urticae [6] = test: Example 6: field test on aubergines (Suqi qie) against Tetranychus urticae, ready-prepared mixture 20:1; conditions: for Destruction (% Abbott) 21 days (eggs) / Destruction (% Abbott) 21 days (males) / Destruction (% Abbott) 21 days (population): 21 days after treatment; for Destruction (% Abbott) 1 day: males on leaves, 1 day after treatment; for Destruction (% Abbott) 21 days (population): total population
Protocol: In plots measuring approximately 8 m^2, aubergines (growth stage 15) of the cultivar “Suqi qie” are treated in three replications against Tetranychus urticae. Application takes place using a back-mounted sprayer. […] The water application rate is 450 l/ha.
Evaluation is made 1 day after treatment, by scoring the destruction of the males on the leaves.
A further evaluation is made 21 days after treatment, by scoring the destruction of the eggs, the destruction of the males, and the total population on the leaves.

[7] = tested on: larvae of the seven-spotted ladybird (Coccinella septempunctata); test: Example 13: Coccinella septempunctata larvae - test on plums (beneficial species); conditions: plum leaves, spray
Protocol: Coccinella septempunctata/Larvae—Test on Plums
An appropriate solution for application is prepared by diluting the respective formulation to the desired concentration.
Plum leaves colonized by larvae of the seven-spotted ladybird (Coccinella septempunctata) are treated by being sprayed with the application solution at the desired concentration.
After the desired time, the destruction is determined in %. 100% here means that all of the ladybird larvae have been killed; 0% means that no ladybird larvae have been killed. The destruction figures ascertained are calculated by the Colby formula.

[8] = tested on: whitefly (Bemisia tabaci); test: Example 10: Bemisia tabaci - test on cotton; conditions: cotton plants, spray
Protocol: Bemisia tabaci—Test on Cotton
(§2) • Solvent: 7 parts by weight of dimethylformamide • Emulsifer: 2 parts by weight of alkylaryl polyglycol ether
as §1
Cotton plants (Gossypium hirsutum) infested with whitefly (Bemisia tabaci) are treated by being sprayed with the preparation of active ingredient at the desired concentration.
(§3) After the desired time, the destruction is determined in %. 100% here means that all of the whitefly have been killed; 0% means that no whitefly have been killed. The destruction figures ascertained are calculated by the Colby formula.

Tetranychus urticae [9] = test: Example 4: field test on cotton plants against Tetranychus urticae; conditions: population on leaves, 13 days after treatment
Protocol: In plots measuring approximately 15 m^2, cotton plants of the cultivar “BRS Aroeira” with a height of approximately 80 cm are treated in three replications against Tetranychus urticae. Application takes place using a spray at 2.5 bar. […] The water application rate is 200 l/ha.
Evaluation is made 13 days after treatment, by scoring the destruction of the population on the leaves.

[10] = tested on: whitefly (Bemisia tabaci); test: Example 11: Bemisia tabaci - test on cabbage; conditions: cabbage plants, spray
Protocol: Bemisia tabaci—Test on Cabbage
as §2, §1
Cabbage plants (Brassica oleracea) infested with whitefly (Bemisia tabaci) are treated by being sprayed with the preparation of active ingredient at the desired concentration.
as §3

Tetranychus urticae [11] = test: Example 1: field test on aubergines against Tetranychus urticae; conditions: for Destruction (% Abbott) 1 day: 1 day after treatment; for Destruction (% Abbott) 55 days: 55 days after treatment; for Destruction (% Abbott) 45 days: 45 days after treatment
Protocol: In plots measuring approximately 14 m^2, aubergines (around 11 weeks after planting out) of the cultivar “Heilongchangqie” are treated in three replications against Tetranychus urticae. Application takes place using a sprayer. […] The water application rate is 450 l/ha.
Evaluation is made 1 day and 55 days after treatment, by scoring the destruction of the eggs on the leaves.
A further evaluation is made 45 and 55 days after treatment, by scoring the destruction of the nymphs on the leaves.

[12] = nymphs on leaves, 120 g a.i./ha

Question: Which results are given for `Cc1cc(C)c(C2=C(OC(=O)CC(C)(C)C)C3(CCCC3)OC2=O)c(C)c1` [Oberon (I), Spiromesifen]?
Answer: Destruction (% Abbott) 3 days (Tetranychus urticae [1]; 120 g a.i./ha): 25.0 % Abbott; Destruction in % after 3d ([2]; 100 g ai/ha): 30%; Destruction (% Abbott) 7 days ([3]; 105 g a.i./ha): 3.3 % Abbott; Destruction (% Abbott) 14 days ([3]; 105 g a.i./ha): 0 % Abbott; Destruction (% Abbott) 14 days ([3]; 210 g a.i./ha): 0 % Abbott; Destruction (% Abbott) 2 days (Hemitarsonemus latus; 120 g a.i./ha): 50 % Abbott; Activity (% Abbott) 1 day (Tetranychus urticae [4]; 120 g a.i./ha): 32.4 % Abbott; Activity (% H. + T.) 3 days (Tetranychus urticae [5]; 105 g a.i./ha): 32.2 % H. + T.; Activity (% H. + T.) 3 days (Tetranychus urticae [5]; 210 g a.i./ha): 40.7 % H. + T.; Destruction (% Abbott) 21 days (eggs) (Tetranychus urticae [6]; 120 g a.i./ha): 0 % Abbott; Destruction (% Abbott) 1 day (Tetranychus urticae [6]; 120 g a.i./ha): 0 % Abbott; Destruction (% Abbott) 21 days (males) (Tetranychus urticae [6]; 120 g a.i./ha): 5 % Abbott; Destruction (% Abbott) 21 days (population) (Tetranychus urticae [6]; 120 g a.i./ha): 1.9 % Abbott; Destruction in % after 3d ([7]; 60 g ai/ha): 3%; Destruction in % after 3d ([7]; 120 g ai/ha): 10%; Destruction in % after 7d ([8]; 120 g ai/ha): 70%; Destruction (% Abbott) 13 days (Tetranychus urticae [9]; 120 g a.i./ha): 58.5 % Abbott; Destruction in % after 9d ([10]; 150 g ai/ha): 55%; Destruction (% Abbott) 1 day (Tetranychus urticae [11]; eggs on leaves, 120 g a.i./ha): 26.7 % Abbott; Destruction (% Abbott) 55 days (Tetranychus urticae [11]; eggs on leaves, 120 g a.i./ha): 0 % Abbott; Destruction (% Abbott) 45 days (Tetranychus urticae [11]; [12]): 14.8 % Abbott; Destruction (% Abbott) 55 days (Tetranychus urticae [11]; [12]): 24.1 % Abbott

Question: abamectin [Abamectin (VI)] was tested. Which “Destruction (% Abbott) 3 days” value (Tetranychus urticae [1]; 10 g a.i./ha) did it give?
Answer: 45.8 % Abbott

Question: And the “Destruction in % after 3d” value ([2]; 4 g ai/ha)?
Answer: 10%

Question: And the “Destruction (% Abbott) 7 days” value ([3]; 10.5 g a.i./ha)?
Answer: 0 % Abbott

Question: And the “Destruction (% Abbott) 14 days” value ([3]; 10.5 g a.i./ha)?
Answer: 0 % Abbott

Question: And the “Destruction (% Abbott) 14 days” value ([3]; 21 g a.i./ha)?
Answer: 2.0 % Abbott

Question: What about the “Destruction (% Abbott) 2 days” value (Hemitarsonemus latus; 10 g a.i./ha) of the same compound?
Answer: 0 % Abbott

Question: What about the “Activity (% Abbott) 1 day” value (Tetranychus urticae [4]; 6 g a.i./ha) of the same compound?
Answer: 27 % Abbott

Question: And the “Activity (% H. + T.) 3 days” value (Tetranychus urticae [5]; 10.5 g a.i./ha)?
Answer: 0 % H. + T.

Question: And the “Activity (% H. + T.) 3 days” value (Tetranychus urticae [5]; 21 g a.i./ha)?
Answer: 0 % H. + T.

Question: What about the “Destruction (% Abbott) 21 days (eggs)” value (Tetranychus urticae [6]; 10 g a.i./ha) of the same compound?
Answer: 0 % Abbott

Question: And the “Destruction (% Abbott) 1 day” value (Tetranychus urticae [6]; 10 g a.i./ha)?
Answer: 33.3 % Abbott

Question: And the “Destruction (% Abbott) 21 days (males)” value (Tetranychus urticae [6]; 10 g a.i./ha)?
Answer: 45 % Abbott

Question: And the “Destruction (% Abbott) 21 days (population)” value (Tetranychus urticae [6]; 10 g a.i./ha)?
Answer: 47.6 % Abbott

Question: What about the “Destruction in % after 3d” value ([7]; 3 g ai/ha) of the same compound?
Answer: 63%

Question: What about the “Destruction in % after 3d” value ([7]; 6 g ai/ha) of the same compound?
Answer: 100%

Question: And the “Destruction in % after 7d” value ([8]; 6 g ai/ha)?
Answer: 0%

Question: And the “Destruction (% Abbott) 13 days” value (Tetranychus urticae [9]; 7.2 g a.i./ha)?
Answer: 16.5 % Abbott

Question: What about the “Destruction in % after 9d” value ([10]; 6 g ai/ha) of the same compound?
Answer: 0%

Question: What about the “Destruction in % after 9d” value ([10]; 15 g ai/ha) of the same compound?
Answer: 0%

Question: And the “Destruction (% Abbott) 1 day” value (Tetranychus urticae [11]; eggs on leaves, 10 g a.i./ha)?
Answer: 19.8 % Abbott

Question: What about the “Destruction (% Abbott) 55 days” value (Tetranychus urticae [11]; eggs on leaves, 10 g a.i./ha) of the same compound?
Answer: 0 % Abbott

Question: What about the “Destruction (% Abbott) 45 days” value (Tetranychus urticae [11]; nymphs on leaves, 10 g a.i./ha) of the same compound?
Answer: 0 % Abbott

Question: What about the “Destruction (% Abbott) 55 days” value (Tetranychus urticae [11]; nymphs on leaves, 10 g a.i./ha) of the same compound?
Answer: 0 % Abbott
